These results are taken from patent US20220056043A1, “NITROGEN-CONTAINING FUSED CYCLIC COMPOUND, PREPARATION METHOD THEREFOR AND USE THEREOF” (SICHUAN KELUN-BIOTECH BIOPHARMACEUTICAL CO., LTD., priority 2019, published 2022).

The term EC50 denotes the concentration giving half of the maximal effect. The pEC50 is −log10 of the EC50, conventionally taken in molar units. The low end stands for a high EC50, the high end for a low EC50.

One test relates to THP1-defNLRP3 cells. Briefly: Agonistic effect on the expression of IL-1β in NLRP3 deficient THP1 cells (THP1-defNLRP3) after PMA-induced differentiation (HTRF). The format is cell-based, human. Conditions: Homo sapiens, THP-1; IL-1β level, PMA-differentiated NLRP3 deficient THP1 cells, 6 hours; highest test concentration 30 μM; read-out: hNLRP3 EC50 (μM) (THP-1defNLRP3). The gist of the method: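 PMA-differentiated (1 μM, 24 h) NLRP3-deficient THP1 macrophages, 1×10^5 cells/well in RPMI 1640 with 2% heat-inactivated FBS, treated with compound for 6 h at 37 °C. Supernatant IL-1β measured by HTRF. EC50 from four-parameter variable-slope fit.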

For a further test, the target named is T1, hTLR7 (Homo sapiens, UniProt Q9NYK1).
T1 construct: host or cells: HEK-hTLR7-NF-κB-Luciferase cells
T1 sequence (Q9NYK1 27-1049): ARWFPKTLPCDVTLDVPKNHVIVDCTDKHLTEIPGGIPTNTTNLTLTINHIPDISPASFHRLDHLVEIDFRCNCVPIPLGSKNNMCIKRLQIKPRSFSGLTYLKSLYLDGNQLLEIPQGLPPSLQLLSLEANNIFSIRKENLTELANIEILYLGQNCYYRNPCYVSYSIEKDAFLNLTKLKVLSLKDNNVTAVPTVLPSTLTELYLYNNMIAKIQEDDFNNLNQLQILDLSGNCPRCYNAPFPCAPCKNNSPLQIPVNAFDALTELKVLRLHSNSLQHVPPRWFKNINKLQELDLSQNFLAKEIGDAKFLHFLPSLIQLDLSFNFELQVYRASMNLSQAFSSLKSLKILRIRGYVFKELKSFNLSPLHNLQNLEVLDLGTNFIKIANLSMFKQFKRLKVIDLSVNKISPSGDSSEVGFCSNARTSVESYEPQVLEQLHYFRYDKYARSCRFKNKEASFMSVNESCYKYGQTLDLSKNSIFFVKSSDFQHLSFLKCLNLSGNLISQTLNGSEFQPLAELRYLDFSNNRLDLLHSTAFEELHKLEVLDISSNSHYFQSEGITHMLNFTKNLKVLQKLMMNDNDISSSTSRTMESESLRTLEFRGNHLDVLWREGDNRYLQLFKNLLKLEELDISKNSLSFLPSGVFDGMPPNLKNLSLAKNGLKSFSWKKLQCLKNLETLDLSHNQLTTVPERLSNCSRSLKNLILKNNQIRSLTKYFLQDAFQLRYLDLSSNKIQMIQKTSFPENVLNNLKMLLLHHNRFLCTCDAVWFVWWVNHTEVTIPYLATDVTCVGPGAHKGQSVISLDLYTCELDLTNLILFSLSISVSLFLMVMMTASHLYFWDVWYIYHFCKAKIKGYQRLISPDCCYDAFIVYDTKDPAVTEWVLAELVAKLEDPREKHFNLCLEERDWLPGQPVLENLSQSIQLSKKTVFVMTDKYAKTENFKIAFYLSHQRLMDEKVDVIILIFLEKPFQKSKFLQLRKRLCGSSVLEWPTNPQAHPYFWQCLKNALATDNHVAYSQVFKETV
The test is described as follows: Agonistic effect on hTLR7, HEK-hTLR7-NF-κB-Luciferase reporter cells. The test is classed as cell-based. Particulars: 16 hours. The gist of the method: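 HEK cells carrying human TLR7 and NF-κB-luciferase reporter, […] in DMEM with 10% FBS, exposed to compound for 16 h at 37 °C, 5% CO2; serves as specificity counterscreen to NLRP3 activity. Luminescence (RLU) after 5 min with luciferase reagent; EC50 by four-parameter variable-slope fit.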
(In general: A reporter such as luciferase makes a cellular process visible.)

pEC50: −log10 of the molar value. A value given as a limit tells only on which side of the number the result lay.

Regarding `Nc1cc(NCC(=O)NC2CC2)c2sc(-c3ccn[nH]3)cc2n1` [Compound 138, 2-((5-amino-2-(1H-pyrazol-5-yl)thieno[3,2-b]pyridin-7-yl)amino)-N-cyclopropylacetamide], the EC50 in the test on THP1-defNLRP3 cells is greater than 30 µM. For the same compound, the pEC50 on hTLR7 is less than 4.00.

Take `C[C@H]1CC[C@H](Nc2cc(N)nc3cc(-c4ccn[nH]4)sc23)CC1` [Compound 128, N^7-((1R,4R)-4-methylcyclohexyl)-2-(1H-pyrazol-5-yl)thieno[3,2-b]pyridine-5,7-diamine]: the EC50 in the test on THP1-defNLRP3 cells was greater than 30 µM. For the same compound, on hTLR7, the pEC50 was less than 4.00.

For the compound `CC[C@@H](CO)Nc1cc(N)nc2cc(-c3ccn[nH]3)sc12` [Compound 132, (S)-2-((5-amino-2-(1H-pyrazol-5-yl)thieno[3,2-b]pyridin-7-yl)amino)-1-butanol], in the test with THP1-defNLRP3 cells, the EC50 is greater than 30 µM. Also, the pEC50 on hTLR7 was less than 4.00.

In the case of `C[C@@H](CCO)Nc1cc(N)nc2cc(-c3ccn[nH]3)sc12` [Compound 125, (S)-3-((5-amino-2-(1H-pyrazol-5-yl)thieno[3,2-b]pyridin-7-yl)amino)butanol], in the test on THP1-defNLRP3 cells, the EC50 was greater than 30 µM. For the same compound, the pEC50 at hTLR7 is less than 4.00.

With `C[C@H](Nc1cc(N)nc2cc(-c3ccn[nH]3)sc12)c1cccc(C(F)(F)F)c1` [Compound 131, (S)-2-(1H-pyrazol-5-yl)-N^7-(1-(3-(trifluoromethyl)phenyl)ethyl)thieno[3,2-b]pyridine-5,7-diamine], the EC50 in the test on THP1-defNLRP3 cells is greater than 30 µM. This compound also had a pEC50 at hTLR7 of less than 4.00.
